In brackets after ≈: the same amount, converted by molar mass. Where two headings read alike, the source gives them in different places. Starred links: 1 amine or outer side, 2 acyl side, 3 side chain; linkers in the order of their positions; H or OH if unused. Positions of bridges follow the written chain, without caps; N, C: chain ends. Residues, ends and D or L forms follow the SMILES beside them. *: point of attachment. C20 diacid = O=C(O)CCCCCCCCCCCCCCCCCCC(=O)*; C18 diacid = O=C(O)CCCCCCCCCCCCCCCCC(=O)*; γGlu = O=C(O)[C@H](CCC(=O)[*:2])N[*:1]
Experiments:
[1] = target: T1, human calcitonin receptor (Homo sapiens, UniProt P30988); test: Assay (II)a functional CRE-luciferase assay, human calcitonin receptor; type: cell-based; settings: Table 7; human calcitonin (CTa) receptor
T1 construct: expressed in transfected cells; host or cells: BHK570
T1 sequence (P30988 25-474): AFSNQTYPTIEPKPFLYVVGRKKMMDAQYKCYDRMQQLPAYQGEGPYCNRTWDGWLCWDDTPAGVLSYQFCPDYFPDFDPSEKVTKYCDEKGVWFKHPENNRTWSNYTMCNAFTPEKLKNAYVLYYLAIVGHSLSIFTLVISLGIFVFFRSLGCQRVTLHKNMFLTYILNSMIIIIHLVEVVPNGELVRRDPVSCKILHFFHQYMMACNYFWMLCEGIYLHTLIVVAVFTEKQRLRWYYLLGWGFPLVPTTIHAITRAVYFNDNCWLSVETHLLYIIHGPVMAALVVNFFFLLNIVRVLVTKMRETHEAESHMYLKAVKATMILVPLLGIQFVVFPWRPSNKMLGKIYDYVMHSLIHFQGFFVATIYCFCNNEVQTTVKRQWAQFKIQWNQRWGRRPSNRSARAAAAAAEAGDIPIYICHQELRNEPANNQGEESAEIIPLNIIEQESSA

[2] = Assay (III) ThT fibrillation assay for physical stability; type: physicochemical; settings: ThT fibrillation assay
Summary of the method: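 Freshly prepared formulations, pH-adjusted, with 1 μM ThT; four or eight replicates incubated at 37 °C under 960 rpm orbital shaking. Fluorescence (ex 444/em 485 nm) read every 20 min; […]. Peptide concentration measured by RP-HPLC before and after the run.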

[3] = Assay (IV) determination of solubility; type: physicochemical
Summary of the method: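 Solubility is measured across pH 3.0–8.0 by mixing a ~500 nmol/ml aqueous polypeptide stock 1:1 with 100 mM glycylglycine or bistrispropane buffers. Samples stand 18 hours at room temperature, then are centrifuged and the soluble concentration is determined by HPLC.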

[4] = target: T2, human amylin receptor (amylin 3(a) receptor: human calcitonin receptor + RAMP-3) (Homo sapiens, UniProt O60896+P30988); test: Assay (II)a functional CRE-luciferase assay, human amylin receptor; type: cell-based; settings: Table 2; BHK amylin 3(a)-receptor/CRE-luc cells
T2 construct: expressed in transfected cells; host or cells: BHK570
T2 sequence (P30988 25-474): T1 sequence (P30988 25-474)
T2 sequence (O60896 24-148 partner): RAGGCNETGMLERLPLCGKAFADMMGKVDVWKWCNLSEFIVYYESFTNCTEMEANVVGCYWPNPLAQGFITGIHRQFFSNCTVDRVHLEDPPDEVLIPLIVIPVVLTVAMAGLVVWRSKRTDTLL

[5] = bistrispropane buffer, pH 6, pH 6.0, read-out: Solubility pH 6.0
[6] = bistrispropane buffer, pH 6.5, pH 6.5, read-out: Solubility pH 6.5
[7] = bistrispropane buffer, pH 7, pH 7.0, read-out: Solubility pH 7.0
[8] = bistrispropane buffer, pH 7.5, pH 7.5, read-out: Solubility pH 7.5
[9] = bistrispropane buffer, pH 8, pH 8.0, read-out: Solubility pH 8.0
[10] = glycylglycine buffer, pH 3, pH 3.0, read-out: Solubility pH 3.0
[11] = glycylglycine buffer, pH 4, pH 4.0, 18 hours at room temperature, Table 2, read-out: Solubility pH 4.0
[12] = glycylglycine buffer, pH 4, pH 4.0, read-out: Solubility pH 4.0
[13] = glycylglycine buffer, pH 5, pH 5.0, read-out: Solubility pH 5.0

Row | Compound | EC50 [1] [pM] | ThT pH 4.0 lag time [2] [h] | ThT pH 4.0 lag time (h) [2] [h] | solubility at 18 h [3, 5] [µM] | solubility at 18 h [3, 6] [µM] | solubility at 18 h [3, 7] [µM] | solubility at 18 h [3, 8] [µM] | solubility at 18 h [3, 9] [µM] | solubility at 18 h [3, 10] [µM] | solubility at 18 h [3, 11] [µM] | solubility at 18 h [3, 12] [µM] | solubility at 18 h [3, 13] [µM] | EC50 [4] [pM]
1 | CC[C@H](C)[C@H](NC(=O)[C@@H]1CCCN1C(=O)CNC(=O)[C@H](Cc1ccccc1)NC(=O)[C@H](CC(N)=O)NC(=O)[C@H](CC(N)=O)NC(=O)[C@H](CO)NC(=O)[C@H](CO)NC(=O)[C@H](Cc1c[nH]cn1)NC(=O)[C@H](Cc1c[nH]cn1)NC(=O)[C@H](CC(C)C)NC(=O)[C@H](Cc1ccccc1)NC(=O)[C@H](CCC(=O)O)NC(=O)[C@H](C)NC(=O)[C@H](CC(C)C)NC(=O)[C@H](CCCNC(=N)N)NC(=O)[C@H](CCC(N)=O)NC(=O)[C@@H](NC(=O)[C@H](C)NC(=O)[C@@H]1CSSC[C@H](NC(=O)[C@H](Cc2c[nH]cn2)NC(=O)[C@H](Cc2c[nH]cn2)NC(=O)[C@H](Cc2c[nH]cn2)NC(=O)CC[C@H](NC(=O)CCCCCCCCCCCCCCCCC(=O)O)C(=O)O)C(=O)N[C@@H](CC(N)=O)C(=O)N[C@@H]([C@@H](C)O)C(=O)N[C@@H](C)C(=O)N[C@@H]([C@@H](C)O)C(=O)N1)[C@@H](C)O)C(=O)N[C@@H](CC(C)C)C(=O)N1CCC[C@H]1C(=O)N1CCC[C@H]1C(=O)N[C@H](C(=O)N[C@@H](CC(N)=O)C(=O)N[C@H](C(=O)NCC(=O)N[C@@H](CO)C(=O)N[C@@H](CC(N)=O)C(=O)N[C@H](C(=O)N[C@@H](Cc1ccc(O)cc1)C(N)=O)[C@@H](C)O)C(C)C)[C@@H](C)O [Example 45, N-alpha-[(S)-4-Carboxy-4-(17-carboxyheptadecanoylamino)butyryl]-His-His-[His1,Glu14,His17]-pramlintide] ({C18 diacid-γGlu}-HHHCNTATCATQRLAEFLHHSSNNFGPILPPTNVGSNTY-NH2; disulfide 4-9 (inferred); C-terminus assumed) | 265 | 36.7 | 36.7 | 188 (≈ 886 µg/mL) | 48 (≈ 226 µg/mL) | 42 (≈ 198 µg/mL) | 134 (≈ 631 µg/mL) | > 200 | > 200 | > 200 | > 200 | > 200 | 62.4
2 | {C20 diacid-γGlu}-SSGSSGHCNTATCATQRLAEFLHHSSNNFGPILPPTNVGSNTY-NH2 (disulfide 8-13 (inferred); C-terminus assumed) [Example 44, N-alpha-[(S)-4-Carboxy-4-(19-carboxynonadecanoylamino)butyryl]-Ser-Ser-Gly-Ser-Ser-Gly-[His1,Glu14,His17]-pramlintide] | 669 |  | 10.6 | 21 | 20 | 52 | > 200 | > 200 | > 200 | > 200 | > 200 | > 200 | 306

From patent US8722849B2, “Polypeptides” (Novo Nordisk A/S, priority 2011, dated 2014)
